Measured values taken from patent publication EP2684879A1, “Substituted mesoionic compounds for combating animal pests” (priority 2012, dated 2014).

What was measured:
Format in all cases: in vivo
[1] = tested on: Rice brown plant hopper (Nilaparvata lugens); test: Rice brown plant hopper, sprayed potted rice seedlings; conditions: test concentration of 500 ppm, after 72 hours, in comparison with untreated controls
Procedure: Rice seedlings were cleaned and washed 24 hours before spraying. The active compounds were formulated in 50:50 acetone:water (vol:vol) and 0.1 % vol/vol surfactant (EL 620) was added. Potted rice seedlings were sprayed with 5 ml test solution, air dried, placed in cages and inoculated with 10 adults. Treated rice plants were kept at about 28-29°C and relative humidity of about 50-60%. Percent mortality was recorded after 72 hours.

[2] = tested on: Green Peach Aphid (Myzus persicae, mixed life stages); test: Green peach aphid, sprayed infested bell pepper plants; conditions: 120 h, test concentration of 1415 ppm, after 5 days, relative to mortality on untreated control plants
Description: The active compounds were formulated in cyclohexanone as a 10,000 ppm solution supplied in tubes. The tubes were inserted into an automated electrostatic sprayer equipped with an atomizing nozzle and they served as stock solutions for which lower dilutions were made in 50% acetone:50% water (v/v). A nonionic surfactant (Kinetic®) was included in the solution at a volume of 0.01 % (v/v). Bell pepper plants at the first true-leaf stage were infested prior to treatment by placing heavily infested leaves from the main colony on top of the treatment plants. Aphids were allowed to transfer overnight to accomplish an infestation of 30-50 aphids per plant and the host leaves were removed. The infested plants were then sprayed by an automated electrostatic plant sprayer equipped with an atomizing spray nozzle. The plants were dried in the sprayer fume hood, removed, and then maintained in a growth room under fluorescent lighting in a 24-hr photoperiod at about 25°C and about 20-40% relative humidity. Aphid mortality on the treated plants, relative to mortality on untreated control plants, was determined after 5 days.

[3] = tested on: Southern Armyworm (Spodoptera eridania, 2nd instar larvae); test: Southern armyworm, sprayed lima bean plants; conditions: 96 h, test concentration of 500 ppm, 4 days after treatment, in comparison with untreated controls
Procedure: The active compounds were formulated in cyclohexanone as a 10, 0000 ppm solution supplied in 1.3 ml ABgene® tubes. These tubes were inserted into an automated electrostatic sprayer equipped with an atomizing nozzle and they served as stock solutions for which lower dilutions were made in 50% acetone: 50% water (v/v). A nonionic surfactant (Kinetic®) was included in the solution at a volume of 0.01% (v/v). Lima bean plants (variety Sieva) were grown 2 plants to a pot and selected for treatment at the 1st true leaf stage. Test solutions were sprayed onto the foliage by an automated electrostatic plant sprayer equipped with an atomizing spray nozzle. The plants were dried in the sprayer fume hood and then removed from the sprayer. Each pot was placed into perforated plastic bags with a zip closure. Ten to 11 armyworm larvae were placed into the bag and the bags zipped closed. Test plants were maintained in a growth room at 25°C and 20-40% relative humidity for 4 days, avoiding direct exposure to fluorescent light (24 hour photoperiod) to prevent trapping of heat inside the bags. Mortality and reduced feeding were assessed 4 days after treatment, compared to untreated control plants.

[4] = tested on: Mediterranean fruitfly (Ceratitis capitata); test: Mediterranean fruitfly control, insect diet in microtiter plates; conditions: 120 h, test concentration of 1415 ppm, egg and larval mortality visually assessed after 5 days
Procedure: (§1) For evaluating control of Mediterranean fruitfly (Ceratitis capitata) the test unit consisted of microtiter plates containing an insect diet and 50-80 C. capitata eggs. The compounds were formulated using a solution containing 75% v/v water and 25% v/v DMSO. Different concentrations of formulated compounds were sprayed onto the insect diet at 5 µl, using a custom built micro atomizer, at two replications. After application, microtiter plates were incubated at about 28 ± 1°C and about 80 ± 5 % relative humidity for 5 days. Egg and larval mortality was then visually assessed.

[5] = tested on: boll weevil (Anthonomus grandis); test: Boll weevil control, insect diet in 24-well microtiter plates; conditions: 120 h, test concentration of 1415 ppm, egg and larval mortality visually assessed after 5 days
Procedure: For evaluating control of boll weevil (Anthonomus grandis) the test unit consists of 24-well-microtiter plates containing an insect diet and 20-30 A. grandis eggs. The compounds were formulated using a solution containing 75% v/v water and 25% v/v DMSO. Different concentrations of formulated compounds were sprayed onto the insect diet at 20 µl, using a custom built micro atomizer, at two replications. After application, microtiter plates were incubated at about 23 ± 1°C and about 50 ± 5 % relative humidity for 5 days. Egg and larval mortality was then visually assessed.

[6] = tested on: Orchid thrips (Dichromothrips corbetti); test: Orchid thrips, floral-immersion technique; conditions: 96 h, test concentration of 100 ppm, after 4 days, in comparison with untreated controls
Procedure: Dichromothrips corbetti adults used for bioassay were obtained from a colony maintained continuously under laboratory conditions. For testing purposes, the test compound was diluted to a concentration of 300 ppm (wt compound: vol diluent) in a 1:1 mixture of acetone:water (vol:vol), plus 0.01 % vol/vol Kinetic® surfactant. Thrips potency of each compound was evaluated by using a floral-immersion technique. Plastic petri dishes were used as test arenas. All petals of individual, intact orchid flowers were dipped into treatment solution and allowed to dry. Treated flowers were placed into individual petri dishes along with 10 - 15 adult thrips. The petri dishes were then covered with lids. All test arenas were held under continuous light and a temperature of about 28°C for duration of the assay. After 4 days, the numbers of live thrips were counted on each flower, and along inner walls of each petri dish. The level of thrips mortality was extrapolated from pre-treatment thrips numbers.

[7] = tested on: tobacco budworm (Heliothis virescens); test: Tobacco budworm control, insect diet in 96-well microtiter plates; conditions: 120 h
Procedure: as §1, with “of tobacco budworm (Heliothis virescens)” for “of Mediterranean fruitfly (Ceratitis capitata)”, “unit consists” for “unit consisted”, “of 96-well-microtiter” for “of microtiter”, “and 15-25 H. virescens” for “and 50-80 C. capitata”, “at 10” for “at 5”

[8] = tested on: vetch aphid (Megoura viciae); test: Vetch aphid control, broad bean leaf disks, contact or systemic; conditions: foliar, 120 h, test concentration of 1415 ppm, aphid mortality visually assessed after 5 days

Compound	mortality at 1415 ppm [2] [%]	mortality at 500 ppm [3] [%]	also measured
CC(C)S(=NC(=O)c1cccc(-c2cccc(-c3c([O-])[n+](Cc4ccc(Cl)nc4)c4ccccn4c3=O)c2)c1)C(C)C [Compound C-13]	≥ 75		mortality at 500 ppm [1]: ≥ 75%
CC(C)S(=NC(=O)c1cccc(-c2c([O-])[n+](Cc3ccc(Cl)nc3)c3ccccn3c2=O)c1)C(C)C [Compound C-5]	≥ 75	≥ 75	
CCS(CC)=NC(=O)c1cccc(-c2cc(-c3c([O-])[n+](Cc4ccc(Cl)nc4)c4ccccn4c3=O)ccc2OC)c1 [Compound C-9]	≥ 75		
CC(C)S(=NC(=O)c1ccc(-c2cccc(-c3c([O-])[n+](Cc4ccc(Cl)nc4)c4ccccn4c3=O)c2)cc1)C(C)C [Compound C-8]	≥ 75	≥ 75	
CCS(CC)=NC(=O)c1cccc(-c2cc(-c3c([O-])[n+](Cc4cnc(Cl)s4)c4c(C)cccn4c3=O)ccc2Cl)c1 [Compound C-10]	≥ 75		
CCS(CC)=NC(=O)c1cccc(-c2cccc(-c3c([O-])[n+](Cc4ccc(Cl)nc4)c4ccccn4c3=O)c2)c1 [Compound C-11]	≥ 75		
CCS(CC)=NC(=O)c1cccc(-c2c([O-])[n+](Cc3ccc(Cl)nc3)c3ccccn3c2=O)c1 [Compound C-4, 1-[(6-chloro-3-pyridyl)methyl]-3-[3-[(diethyl-λ4-sulfanylidene)carbamoyl]phenyl]-4-oxo-pyrido[1,2-a]pyrimidin-1-ium-2-olate]		≥ 75	
CCS(=NC(=O)c1cccc(-c2cccc(-c3c([O-])[n+](Cc4ccc(Cl)nc4)c4ccccn4c3=O)c2)c1)C1CC1 (centres unmarked) [Compound C-12]	≥ 75		
CCS(CC)=NC(=O)c1ccc(-c2cccc(-c3c([O-])[n+](Cc4cnc(Cl)s4)c4c(C)cccn4c3=O)c2)cc1 [Compound C-1]	≥ 75	≥ 75	mortality at 1415 ppm [4]: ≥ 75%; mortality at 1415 ppm [5]: ≥ 75%; mortality at 100 ppm [6]: ≥ 75%; mortality at 1415 ppm [7]: ≥ 75%
CCS(=NC(=O)c1ccc(-c2cccc(-c3c([O-])[n+](Cc4ccc(Cl)nc4)c4ccccn4c3=O)c2)cc1)C1CC1 (centres unmarked) [Compound C-7]	≥ 75	≥ 75	mortality at 1415 ppm [8]: ≥ 75%
